Measured values taken from patent publication US9598399B2, “Compound suitable for detection of mitochondrial complex-1” (HAMAMATSU PHOTONICS K.K., priority 2012, dated 2017).

Tests used:
mitochondrial Complex-1 [1] = experiment: Autoradiography using living rat brain slices, inhibition of probe binding by rotenone; details: for binding inhibitory effect by rotenone on probe binding: rotenone 2-20000 nM, probe 1 MBq/ml, FIGS. 3 and 4
Experimental: A rat was anesthetized with chloral hydrate (400 mg/kg; I.P.) and decapitated. Thereafter, the brain was immediately sampled and cooled sufficiently, and the cooled brain was immersed in ACSF (artificial cerebrospinal fluid) in a sherbet state. A necessary block of the obtained brain was cut and adhered to a fixing platform of a vibration microtome HM650V (Thermo Fisher Scientific, Inc., Waltham, USA). Thereafter, brain slices having a thickness of 300 μm were produced. The cut brain slices were immersed in 24 ml of ACSF for 30 minutes under bubbling with O2, and thus the activities of cells were calmed. Thereafter, 20 μL of Vehicle or Rotenone (adjusted to concentrations of 2 nM, 20 nM, 200 nM, and 20000 nM in respective beakers) was added to ACSF, and the mixture was bubbled for 30 minutes. Furthermore, 1 MBq/ml of [^18F]BMS or [^18F]BCPP-EF was added to the ACSF, and bubbling was continued for 30 minutes. After completion of the bubbling, the brain slices were taken out and transferred to 100 ml of fresh ACSF. Subsequently, excess RI was washed away by bubbling the ACSF for another 30 minutes. Thereafter, the brain slices were arranged in a row on an OHP sheet, and an image thereof was captured with a scanner (Epson: GT-600). Subsequently, the OHP sheet having the brain slices arranged in a row thereon was placed on an imaging plate (ST-VI, Fujifilm Corp., Tokyo) having sensitivity to radiation, and the OHP sheet was left to stand for about one hour in the dark (contact). The imaging plate was subjected to detection with a Fluoro Image Analyzer, FLA-7000 (Fujifilm Corp., Tokyo).

mitochondrial Complex-1 [2] = experiment: PET analysis of rotenone-administered rat (brain and heart); assay type: in vivo; details: rat cerebellum, cerebral cortex, corpus striatum and heart; rotenone 0.1 mg/kg/h i.v.; FIGS. 5 and 6
Experimental: A rat was anesthetized with chloral hydrate (400 mg/kg; I.P.) and was immobilized on a bed for measurement. Immediately thereafter, rotenone (0.1 mg/kg/h) or a vehicle was administered through the tail vein of the rat. In order to identify the position of the brain during the administration, an analysis was carried out using Clairvivo-CT (Shimadzu Corp.). Thereafter, the bed for measurement was moved to Clairvivo PET. After the administration of rotenone (0.1 mg/kg/h) or the vehicle was completed, [^18F]BMS or [^18F]BCPP-EF was immediately bolus administered in an amount of about 8 MBq/animal through the tail vein of the rat, and the measurement was carried out for 60 minutes. During the measurement, chloral hydrate (100 mg/kg/hr) was continuously administered through the tail vein of the rat, and thereby the rat was inactivated.

mitochondrial Complex-1 [3] = experiment: PET analysis of intracerebral activity of mitochondrial Complex-1 in young and aged monkey; assay type: in vivo; details: young monkey (5 years old) versus aged monkey (22 years old), FIG. 10
Experimental: (§1) Cephalic vein or saphenous vein was secured as the route of intravenous administration to the test animal, and femoral artery or posterior tibial artery was secured as the route for collecting arterial blood. First, the amount of radioactivity of [^18F]BMS, [^18F]BCPP-EF or [^11C]BCPP-EM was measured. As radioactive agents, [^18F]BMS and [^18F]BCPP-EF were administered through an indwelling needle indwelled in a test animal in an amount of administration of 300 to 500 MBq, and [^11C]BCPP-EM was administered in an amount of administration of 800 to 1200 MBq, such that the entire amount of the radioactive agent was intravenously administered over about 30 seconds. Simultaneously with the initiation of administration of the radioactive agent, measurement of emission (6 frames of 10 seconds, 6 frames of 30 seconds, 12 frames of 1 minute, 25 frames of 3 minutes, and 6 frames of 5 minutes; 55 frames for 121 minutes in total) was initiated.
The results of a PET analysis obtained from a young monkey (5 years old) and an aged monkey (22 years old) are presented in FIG. 10. [^18F]BCPP-EF was used as the PET probe.

mitochondrial Complex-1 [4] = experiment: PET analysis of intracerebral activity of mitochondrial Complex-1 in Parkinson's disease model monkey; assay type: in vivo, Macaca fascicularis; details: Parkinson's disease (MPTP) model monkey versus normal monkey, FIG. 11
Experimental: as §1, with “Simultaneously with the initiation of administration of the radioactive agent, measurement of emission (6 frames of 10 seconds, 6 frames of 30 seconds, 12 frames of 1 minute, 25 frames of 3 minutes, and 6 frames of 5 minutes; 55 frames for 121 minutes in total) was initiated.” left out
A comparison of the intracerebral activity of mitochondrial Complex-1 was made between a normal monkey and a Parkinson's disease model monkey by a PET analysis. […] The degree of motility disturbance in the limbs was evaluated by observing the way that the Macaca fascicularis monkey picked up the feed, and also, by measuring the decrease in the sites of dopamine reabsorption using a PET analysis, it was finally confirmed that the Macaca fascicularis monkey had the condition of Parkinson's disease.

mitochondrial Complex-1 [5] = experiment: PET experiment on inhibition of binding to mitochondrial Complex-1 by rotenone administration in monkey brain; assay type: in vivo; details: compared with [18F]BMS
Experimental: as §1
In the experiment on the inhibition of PET probe binding by rotenone administration in the brain of a monkey, rotenone was administered to the test animal by intravenous injection in an amount of 0.1 mg/kg/hr. Subsequently, [^18F]BMS, [^18F]BCPP-EF or [^11C]BCPP-EM was administered as a probe, and a PET analysis was carried out.

[6] = test system: site of ischemic disorder in the brain; experiment: PET analysis of rat cerebral infarction (PIT) model with blocked middle cerebral artery; assay type: in vivo; details: for accumulation of probe in site of ischemic disorder: Normal, Day-1, Day-7, PET 60 minutes
Experimental: The rat was subjected to anesthesia induction using 4% halothane (30% O2, 70% room air), and during the surgery, the halothane concentration was maintained at 1.5% to 2%. The skin was incised along the left eye cavity margin under a surgical microscope, and an elliptical window (hole) having a size of about 3 mm was cut open in the lower cranium using a dental drill so that the left middle cerebral artery could be seen under the dura mater. Photosensitizer Rose Bengal (20 mg/kg) was administered through the tail vein of the rat, the middle cerebral artery was irradiated with green light having a wavelength of 540 nm for 10 minutes, and thus cerebral infarction was developed in the rat.
In the respective rats before the onset of cerebral infarction (Normal), 1 day after the onset of cerebral infarction (Day-1), and 7 days after the onset of cerebral infarction (Day-7), glucose metabolism (using [^18F]FDG as a probe) and the activity of mitochondrial Complex-1 (using [^18F]BMS or [^18F]BCPP-EF as a probe) in the sites of ischemic disorder in the brain were monitored by the PET method. Specifically, each of the probes was bolus administered in an amount of 6 to 8 MBq/animal through the tail vein of the rat, and the analysis was carried out for 60 minutes. During the analysis, the rat was inactivated by continuously administering chloral hydrate (100 mg/kg/hr) through the tail vein of the rat.

Oil-solubility (log P) = assay type: physicochemical
mitochondrial Complex-1 [7] = experiment: In vitro autoradiography of rat brain slices and in vivo PET of living rat brain (background evaluation of [18F]BMS)
Text: On the other hand, it has been reported that [^18F]BMS-747158-02 (2-tert-butyl-4-chloro-5-[4-(2-fluoroethoxymethyl)-benzyloxy]-2H-pyridazin-3-one, [^18F]BMS) serves as a PET probe that recognizes mitochondrial Complex-1 (hereinafter, may be referred to as “MC-1”), and this compound is used in a functional evaluation of the brain or the heart (Patent Literature 1 and Non-Patent Literature 1).

## CC(C)(C)n1ncc(OCc2ccc(OCCCC[18F])nc2)c(Cl)c1=O [[^18F]BCPP-BF]
Mitochondrial Complex-1 [1]
  binding inhibitory effect by rotenone on probe binding: affected by the binding inhibitory effect of rotenone

## CC(C)(C)n1ncc(OCc2ccc(OCCOCC[18F])nc2)c(Cl)c1=O [[^18F]BCPP-EF]
Mitochondrial Complex-1 [2]
  uptake quantity of probe after administration of rotenone: further reduced by the administration of rotenone than that of [^18F]BMS
Mitochondrial Complex-1 [3]
  amount of PET probe accumulated in the brain: a larger amount of the PET probe was accumulated in the brain in the young monkey than in the aged monkey
Mitochondrial Complex-1 [4]
  amount of PET probe accumulating in the brain: smaller in the Parkinson's disease model monkey, compared with the normal monkey
Mitochondrial Complex-1 [5]
  specificity to mitochondrial Complex-1: higher specificity to mitochondrial Complex-1 than [^18F]BMS
Mitochondrial Complex-1 [5]; rotenone 0.1 mg/kg/hr i.v., FIGS. 8 and 9
  binding inhibitory effect of rotenone on probe binding: more likely to be affected by the binding inhibitory effect of rotenone
Mitochondrial Complex-1 [1]; compared with [18F]BMS
  specificity to mitochondrial Complex-1: higher specificity to mitochondrial Complex-1 than [^18F]BMS
Mitochondrial Complex-1 [1]
  binding inhibitory effect by rotenone on probe binding: more likely to be affected by the binding inhibitory effect by rotenone than [^18F]BMS
[6]; rat PIT model, FIG. 7
  accumulation of probe in site of ischemic disorder: no accumulation of the probe was observed in the site of ischemic disorder
[6]; rat PIT model, compared with [18F]BMS, FIG. 7
  degree of accumulation of probe, site of ischemic disorder versus normal site: clearly different between a site of ischemic disorder and a normal site

## OC[C@H]1OC(O)[C@H]([18F])[C@@H](O)[C@@H]1O (stereo partly shown) [[^18F]FDG, ^18F-fluorodeoxyglucose]
[6]; cerebral infarction model rat, PET, background statement
  accumulation of probe in site of ischemic injury of the brain: accumulation of [^18F]FDG is increased
[6]; rat PIT model, FIG. 7
  accumulation of probe in site of ischemic disorder: accumulation of [^18F]FDG increased in the site of ischemic disorder

## CC(C)(C)n1ncc(OCc2ccc(COCCF)cc2)c(Cl)c1=O [[^18F]BMS, 2-tert-butyl-4-chloro-5-[4-(2-fluoroethoxymethyl)-benzyloxy]-2H-pyridazin-3-one]
Oil-solubility (log P)
  logP: 1.42
Mitochondrial Complex-1 [7]; rat brain
  non-specific binding capacity: high non-specific binding capacity
Mitochondrial Complex-1 [7]; rotenone, inhibitory drug specific to Complex-1
  inhibitory effect in inhibition experiment using rotenone: an inhibitory effect cannot be sufficiently checked
[6]; rat PIT model, FIG. 7
  accumulation of probe in site of ischemic disorder: no accumulation of the probe was observed in the site of ischemic disorder
